The NIST ThermoML archive (doi:10.1016/j.jct.2015.03.001)
± gives the expanded uncertainty stated by the source.

Key:
[1] = refractive index (Na D-line) (dimensionless); xn = mol fraction of the nth substance listed; conditions: 99 kPa, Liquid, Abbe refractometer
[2] = relative permittivity at various frequencies (dimensionless); xn = mol fraction of the nth substance listed; conditions: 99 kPa, Liquid, Frequency=2 MHz, Parallel plate capacitor

CC(C)(C)Cl [2-chloro-2-methylpropane] + CCCCCC
Conditions	refractive index, 283.15 K	refractive index, 298.15 K	refractive index, 313.15 K	relative permittivity, 283.15 K	relative permittivity, 298.15 K	relative permittivity, 313.15 K
[1], x2 = 0	1.39115 ± 0.00031	1.38225 ± 0.00031	1.37312 ± 0.00031	–	–	–
[1], x2 = 0.048	1.39005 ± 0.00031	1.38118 ± 0.00031	1.37209 ± 0.00031	–	–	–
[1], x2 = 0.0978	1.38908 ± 0.00031	1.38022 ± 0.00031	1.37118 ± 0.00031	–	–	–
[1], x2 = 0.1998	1.38741 ± 0.00031	1.3786 ± 0.00031	1.36961 ± 0.00031	–	–	–
[1], x2 = 0.3018	1.38592 ± 0.00031	1.37722 ± 0.00031	1.36829 ± 0.00031	–	–	–
[1], x2 = 0.405	1.38463 ± 0.00031	1.37598 ± 0.00031	1.36716 ± 0.00031	–	–	–
[1], x2 = 0.5059	1.38354 ± 0.00031	1.37491 ± 0.00031	1.36616 ± 0.00031	–	–	–
[1], x2 = 0.6043	1.38258 ± 0.00031	1.37407 ± 0.00031	1.3654 ± 0.00031	–	–	–
[1], x2 = 0.7077	1.38181 ± 0.00031	1.37335 ± 0.00031	1.36477 ± 0.00031	–	–	–
[1], x2 = 0.806	1.38122 ± 0.00031	1.37282 ± 0.00031	1.36433 ± 0.00031	–	–	–
[1], x2 = 0.9095	1.38081 ± 0.00031	1.37249 ± 0.00031	1.36409 ± 0.00031	–	–	–
[1], x2 = 0.95	1.38066 ± 0.00031	1.37236 ± 0.00031	1.36401 ± 0.00031	–	–	–
[2], x2 = 0	–	–	–	10.429 ± 0.1	9.67 ± 0.097	8.952 ± 0.09
[2], x2 = 0.0467	–	–	–	9.841 ± 0.098	9.132 ± 0.091	8.468 ± 0.085
[2], x2 = 0.099	–	–	–	9.191 ± 0.092	8.543 ± 0.085	7.946 ± 0.079
[2], x2 = 0.2084	–	–	–	7.892 ± 0.079	7.37 ± 0.074	6.883 ± 0.069
[2], x2 = 0.2972	–	–	–	6.892 ± 0.069	6.468 ± 0.065	6.073 ± 0.061
[2], x2 = 0.399	–	–	–	5.897 ± 0.059	5.552 ± 0.056	5.239 ± 0.052
[2], x2 = 0.4982	–	–	–	5.016 ± 0.05	4.749 ± 0.048	4.514 ± 0.045
[2], x2 = 0.6015	–	–	–	4.212 ± 0.042	4.01 ± 0.04	3.842 ± 0.038
[2], x2 = 0.7009	–	–	–	3.543 ± 0.035	3.398 ± 0.034	3.283 ± 0.033
[2], x2 = 0.8046	–	–	–	2.928 ± 0.029	2.833 ± 0.028	2.749 ± 0.028
[2], x2 = 0.8999	–	–	–	2.417 ± 0.024	2.362 ± 0.024	2.308 ± 0.023
[2], x2 = 0.9502	–	–	–	2.149 ± 0.022	2.116 ± 0.021	2.08 ± 0.021

CC(C)(C)Cl [2-chloro-2-methylpropane] + CCCCCCC
Conditions	refractive index, 283.15 K	refractive index, 298.15 K	refractive index, 313.15 K	relative permittivity, 283.15 K	relative permittivity, 298.15 K	relative permittivity, 313.15 K
[1], x2 = 0	1.39115 ± 0.00031	1.38225 ± 0.00031	1.37312 ± 0.00031	–	–	–
[1], x2 = 0.0511	1.39054 ± 0.00031	1.38172 ± 0.00031	1.37267 ± 0.00031	–	–	–
[1], x2 = 0.0962	1.39025 ± 0.00031	1.38149 ± 0.00031	1.37249 ± 0.00031	–	–	–
[1], x2 = 0.1985	1.38996 ± 0.00031	1.3813 ± 0.00031	1.37238 ± 0.00031	–	–	–
[1], x2 = 0.2955	1.38988 ± 0.00031	1.38132 ± 0.00031	1.37254 ± 0.00031	–	–	–
[1], x2 = 0.3985	1.39001 ± 0.00031	1.38159 ± 0.00031	1.37294 ± 0.00031	–	–	–
[1], x2 = 0.4985	1.39024 ± 0.00031	1.38196 ± 0.00031	1.37347 ± 0.00031	–	–	–
[1], x2 = 0.5996	1.39059 ± 0.00031	1.38244 ± 0.00031	1.37414 ± 0.00031	–	–	–
[1], x2 = 0.7039	1.39105 ± 0.00031	1.38306 ± 0.00031	1.37492 ± 0.00031	–	–	–
[1], x2 = 0.8032	1.39164 ± 0.00031	1.38375 ± 0.00031	1.37573 ± 0.00031	–	–	–
[1], x2 = 0.9039	1.39225 ± 0.00031	1.38447 ± 0.00031	1.37653 ± 0.00031	–	–	–
[1], x2 = 0.9618	1.39267 ± 0.00031	1.38492 ± 0.00031	1.37703 ± 0.00031	–	–	–
[2], x2 = 0	–	–	–	10.429 ± 0.1	9.67 ± 0.097	8.952 ± 0.09
[2], x2 = 0.0506	–	–	–	9.787 ± 0.098	9.1 ± 0.091	8.449 ± 0.085
[2], x2 = 0.1035	–	–	–	9.109 ± 0.091	8.485 ± 0.085	7.907 ± 0.079
[2], x2 = 0.2006	–	–	–	7.895 ± 0.079	7.373 ± 0.074	6.892 ± 0.069
[2], x2 = 0.3012	–	–	–	6.721 ± 0.067	6.293 ± 0.063	5.932 ± 0.059
[2], x2 = 0.3976	–	–	–	5.754 ± 0.058	5.41 ± 0.054	5.118 ± 0.051
[2], x2 = 0.504	–	–	–	4.827 ± 0.048	4.566 ± 0.046	4.34 ± 0.043
[2], x2 = 0.6015	–	–	–	4.103 ± 0.041	3.914 ± 0.039	3.747 ± 0.037
[2], x2 = 0.6988	–	–	–	3.472 ± 0.035	3.341 ± 0.033	3.226 ± 0.032
[2], x2 = 0.8014	–	–	–	2.905 ± 0.029	2.819 ± 0.028	2.749 ± 0.028
[2], x2 = 0.9027	–	–	–	2.407 ± 0.024	2.359 ± 0.024	2.322 ± 0.023
[2], x2 = 0.9444	–	–	–	2.209 ± 0.022	2.173 ± 0.022	2.144 ± 0.021

CCC(C)Cl (stereo unspecified) [2-chlorobutane] + CCCCCC
Conditions	refractive index, 283.15 K	refractive index, 298.15 K	refractive index, 313.15 K	relative permittivity, 283.15 K	relative permittivity, 298.15 K	relative permittivity, 313.15 K
[1], x2 = 0	1.40226 ± 0.00031	1.39404 ± 0.00031	1.38562 ± 0.00031	–	–	–
[1], x2 = 0.0471	1.40083 ± 0.00031	1.3926 ± 0.00031	1.38418 ± 0.00031	–	–	–
[1], x2 = 0.0973	1.39939 ± 0.00031	1.39115 ± 0.00031	1.38274 ± 0.00031	–	–	–
[1], x2 = 0.1986	1.39658 ± 0.00031	1.38833 ± 0.00031	1.37993 ± 0.00031	–	–	–
[1], x2 = 0.293	1.39412 ± 0.00031	1.38584 ± 0.00031	1.37742 ± 0.00031	–	–	–
[1], x2 = 0.4036	1.39142 ± 0.00031	1.38315 ± 0.00031	1.3747 ± 0.00031	–	–	–
[1], x2 = 0.5099	1.38903 ± 0.00031	1.38071 ± 0.00031	1.37229 ± 0.00031	–	–	–
[1], x2 = 0.6202	1.38673 ± 0.00031	1.37842 ± 0.00031	1.37002 ± 0.00031	–	–	–
[1], x2 = 0.708	1.38508 ± 0.00031	1.37678 ± 0.00031	1.3684 ± 0.00031	–	–	–
[1], x2 = 0.8068	1.38338 ± 0.00031	1.3751 ± 0.00031	1.36674 ± 0.00031	–	–	–
[1], x2 = 0.908	1.38183 ± 0.00031	1.37356 ± 0.00031	1.36523 ± 0.00031	–	–	–
[1], x2 = 0.9555	1.38113 ± 0.00031	1.37286 ± 0.00031	1.36454 ± 0.00031	–	–	–
[2], x2 = 0	–	–	–	9.323 ± 0.093	8.652 ± 0.087	8.07 ± 0.081
[2], x2 = 0.0536	–	–	–	8.752 ± 0.088	8.128 ± 0.081	7.593 ± 0.076
[2], x2 = 0.0967	–	–	–	8.282 ± 0.083	7.716 ± 0.077	7.222 ± 0.072
[2], x2 = 0.1993	–	–	–	7.216 ± 0.072	6.76 ± 0.068	6.345 ± 0.063
[2], x2 = 0.2995	–	–	–	6.242 ± 0.062	5.881 ± 0.059	5.556 ± 0.056
[2], x2 = 0.3993	–	–	–	5.389 ± 0.054	5.093 ± 0.051	4.827 ± 0.048
[2], x2 = 0.4997	–	–	–	4.625 ± 0.046	4.39 ± 0.044	4.182 ± 0.042
[2], x2 = 0.5974	–	–	–	3.963 ± 0.04	3.786 ± 0.038	3.626 ± 0.036
[2], x2 = 0.7026	–	–	–	3.366 ± 0.034	3.225 ± 0.032	3.106 ± 0.031
[2], x2 = 0.8044	–	–	–	2.811 ± 0.028	2.72 ± 0.027	2.642 ± 0.026
[2], x2 = 0.9006	–	–	–	2.349 ± 0.024	2.296 ± 0.023	2.253 ± 0.023
[2], x2 = 0.9472	–	–	–	2.137 ± 0.021	2.105 ± 0.021	2.07 ± 0.021
